Measurements as given in ChEMBL document CHEMBL1137264, “Carbonic anhydrase inhibitors. Inhibition of the cytosolic human isozymes I and II, and the transmembrane, tumor-associated isozymes IX and XII with substituted aromatic sulfonamides activatable in hypoxic tumors” (Bioorg Med Chem Lett, 2006).
“And” between values parts separate entries of the source, which are not always exact repeats. Equal entries are not always repeated.

Columns and labels:
[1] = target: Carbonic anhydrase 12 (Homo sapiens, UniProt O43570)
Carbonic anhydrase 12, sequence (O43570 whole entry): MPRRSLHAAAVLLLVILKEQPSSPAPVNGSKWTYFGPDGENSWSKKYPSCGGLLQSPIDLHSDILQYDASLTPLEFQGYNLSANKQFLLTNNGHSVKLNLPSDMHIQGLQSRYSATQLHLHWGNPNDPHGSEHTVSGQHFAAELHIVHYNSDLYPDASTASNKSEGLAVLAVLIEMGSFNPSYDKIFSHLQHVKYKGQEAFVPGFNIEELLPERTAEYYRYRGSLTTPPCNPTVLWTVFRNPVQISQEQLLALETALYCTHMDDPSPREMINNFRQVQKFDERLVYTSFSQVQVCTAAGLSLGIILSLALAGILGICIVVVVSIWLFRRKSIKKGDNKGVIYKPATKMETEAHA
Description: Inhibition of human cloned CA12 catalytic domain by CO2 hydration assay

[2] = target: Carbonic anhydrase 9 (Homo sapiens, UniProt Q16790)
Description: Inhibition of human cloned CA9 catalytic domain by CO2 hydration assay

[3] = target: Carbonic anhydrase 1 (Homo sapiens, UniProt P00915)
Carbonic anhydrase 1, sequence (P00915 whole entry): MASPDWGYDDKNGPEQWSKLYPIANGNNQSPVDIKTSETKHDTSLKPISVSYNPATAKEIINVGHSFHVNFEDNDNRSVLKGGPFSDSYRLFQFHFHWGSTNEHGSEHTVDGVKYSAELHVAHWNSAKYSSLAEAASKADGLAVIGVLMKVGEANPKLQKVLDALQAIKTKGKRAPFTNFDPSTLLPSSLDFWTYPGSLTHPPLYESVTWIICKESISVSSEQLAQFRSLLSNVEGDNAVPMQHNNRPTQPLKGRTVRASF
Description: Inhibition of human cloned CA1 by CO2 hydration assay

[4] = target: Carbonic anhydrase 2 (Homo sapiens, UniProt P00918)
Description: Inhibition of human cloned CA2 by CO2 hydration assay

Ki [1]	Ki [2]	Ki [3]	Ki [4]	SMILES
0.19 µM	0.766 µM	22.1 µM	4.62 µM	NS(=O)(=O)c1cc(C(=O)N2CCCC2)c(Cl)cc1SSc1cc(Cl)c(C(=O)N2CCCC2)cc1S(N)(=O)=O
0.02 µM	0.0145 µM	2.6 µM	0.0196 µM	NS(=O)(=O)c1cc(C(=O)N2CCCC2)c(Cl)cc1S
1.39 µM	1.44 µM	7.7 µM	0.0092 µM	Cc1cc(S(N)(=O)=O)c(S(=O)(=O)CC(=O)NN)cc1Cl
2.4 µM	5.44 µM	11.6 µM	0.547 µM	Cc1cc(S(N)(=O)=O)c(S(=O)(=O)CC(=O)O)cc1Cl
1 µM	> 10 µM	392 µM	2.68 µM	CC(C)CSc1cc2c(cc1S(N)(=O)=O)S(=O)(=O)NCN2
0.108 µM	0.139 µM	10.9 µM	3.8 µM	CSc1cc2c(cc1S(N)(=O)=O)S(=O)(=O)NCN2
> 10 µM	> 10 µM	7.8 µM	5.57 µM	CCOC(=O)c1cc(S(N)(=O)=O)c(SSc2cc(Cl)c(C(=O)OCC)cc2S(N)(=O)=O)cc1Cl
0.0356 µM	0.0409 µM	19.7 µM	0.0199 µM	NS(=O)(=O)c1cc(C(=O)NCc2ccccc2)c(Cl)cc1S
> 10 µM	> 10 µM	379 µM	> 10 µM	Cc1cc(S(N)(=O)=O)c(S/C(=N\Nc2ccc([N+](=O)[O-])cc2)c2ccccc2)cc1Cl
> 10 µM	> 10 µM	113 µM	> 10 µM	Cc1cc(S(N)(=O)=O)c(S/C(=N\NS(=O)(=O)c2ccccc2)c2ccccc2)cc1Cl
0.053 µM	0.056 µM	6.4 µM	0.0185 µM	CCOC(=O)c1cc(S(N)(=O)=O)c(S)cc1Cl
0.117 µM and 0.118 µM	0.113 µM and 0.115 µM	7.5 µM and 7.3 µM	0.0086 µM and 0.0087 µM	NS(=O)(=O)c1cc2c(cc1S)NCNS2(=O)=O
1.1 µM	1.61 µM	5.8 µM	0.244 µM	COC(=O)C(C)S(=O)(=O)c1cc(Cl)c(C)cc1S(N)(=O)=O (stereo unspecified)
> 10 µM	> 10 µM	82.1 µM	6.1 µM	NS(=O)(=O)c1cc(C(=O)NCc2ccccc2)c(Cl)cc1SSc1cc(Cl)c(C(=O)NCc2ccccc2)cc1S(N)(=O)=O
2.42 µM	3.42 µM	14.2 µM	0.536 µM	Cc1cc(S(N)(=O)=O)c(S(=O)(=O)C(C)C(=O)NN)cc1Cl (stereo unspecified)
3.05 µM	5 µM	27.3 µM	0.806 µM	Cc1cc(S(N)(=O)=O)c(S(=O)(=O)C(C)C(=O)O)cc1Cl (stereo unspecified)
1.35 µM	1.84 µM	5.1 µM	0.0096 µM	COC(=O)CS(=O)(=O)c1cc(Cl)c(C)cc1S(N)(=O)=O
> 10 µM	> 10 µM	220 µM	> 10 µM	CC/C(=N/Nc1ccc([N+](=O)[O-])cc1)Sc1cc(Cl)c(C)cc1S(N)(=O)=O
1.97 µM	0.78 µM	310 µM	> 10 µM	NS(=O)(=O)c1cc2c(cc1SSc1cc3c(cc1S(N)(=O)=O)S(=O)(=O)NCN3)NCNS2(=O)=O
